Data: patent US10662164B2, “Non-beta lactam antibiotics” (University of Notre Dame du Lac, priority 2014, dated 2020)
Values after ≈ are worked out from the molar mass of the structure shown. Where two headings read alike, the source gives them in different places. Marks after values point to notes of the source that are not given here.

Columns and labels:
S. oralis ATCC 9811 = assay: MIC determination; format: cell-based; settings: Streptococcus oralis, ATCC9811
Excerpt: (§1) The ESKAPE organisms (E. faecium NCTC (ATCC 19734), S. aureus ATCC 29213, K. pneumonia ATCC 700603, A. baumannii ATCC 17961, P. aeruginosa ATCC 17853, E. aerogenes ATCC 35029) and E. coli ATCC 25922) in the initial screen, S. aureus ATCC 27660, S. epidermis ATCC 35547, S. haemolyticus ATCC 29970, S. oralis ATCC 9811, S. pyogenes ATCC 49399, B. cereus ATCC 13061, B. licheniformis ATCC 12759, and E. faecalis ATCC 29212 were purchased from the American Type Culture Collection (Manassas, Va., USA). S. aureus strains NRS100, NRS119, NRS120, VRS1, and VRS2 were obtained from the Network on Antimicrobial Resistance in Staphylococcus aureus (Chantilly, Va., USA). E. faecalis strains 201 and 99, and E. faecium strains 119-39A and 106 were collected from Wayne State University School of Medicine.
(§2) The procedure for MIC determination was the same as previously reported (Tran et al., Am. J. Clin. Dermatol. 2015; doi 10.1007/S40257-015-0125-9).

E. faecium 106 (Van R) [1] = assay: MIC determination; format: cell-based; settings: Enterococcus faecium
Excerpt: as §1, §2

[2] = test system: E. faecium 119-39A (Van S); assay: MIC determination; format: cell-based; settings: Enterococcus faecium
Excerpt: as §1, §2

[3] = test system: B. licheniformis ATCC 12759; assay: MIC determination; format: cell-based; settings: Bacillus licheniformis, ATCC12759; Tables 1 and 5; read-out: MIC
Excerpt: as §1, §2

[4] = test system: S. haemolyticus ATCC 29970; assay: MIC determination; format: cell-based; settings: Staphylococcus haemolyticus, ATCC29970; Tables 1 and 5; read-out: MIC
Excerpt: as §1, §2

S. aureus ATCC 27660 [5] = assay: MIC determination; format: cell-based; settings: Staphylococcus aureus, ATCC27660; mecA positive, resistant to methicillin, oxacillin, tetracycline; Tables 1 and 5; read-out: MIC
Excerpt: as §1, §2

S. aureus NRS100 (COL) = assay: MIC determination; format: cell-based; settings: Staphylococcus aureus, mecA positive, resistant to methicillin, oxacillin, tetracycline, Tables 1 and 5, read-out: MIC
Excerpt: as §1, §2

B. cereus ATCC 13061 = assay: MIC determination; format: cell-based; settings: Bacillus cereus, ATCC13061; Tables 1 and 5; read-out: MIC
Excerpt: as §1, §2

S. pyogenes ATCC 49399 = assay: MIC determination; format: cell-based; settings: Streptococcus pyogenes, ATCC49399
Excerpt: as §1, §2

S. aureus VRS2 = assay: MIC determination; format: cell-based; settings: Staphylococcus aureus; vancomycin-resistant MRSA (vanA) isolate from Pennsylvania; Tables 1 and 5; read-out: MIC
Excerpt: as §1, §2

S. aureus VRS1 [6] = assay: MIC determination; format: cell-based; settings: Staphylococcus aureus; vancomycin-resistant MRSA (vanA) isolate from Michigan; Tables 1 and 5; read-out: MIC
Excerpt: as §1, §2

E. faecalis 99 (Van R) = assay: MIC determination; format: cell-based; settings: Enterococcus faecalis; vancomycin-resistant clinical isolate; Tables 1 and 5
Excerpt: as §1, §2

E. faecalis 201 (Van S) = assay: MIC determination; format: cell-based; settings: Enterococcus faecalis; vancomycin-susceptible clinical isolate; Tables 1 and 5; read-out: MIC
Excerpt: as §1, §2

S. aureus NRS119 = assay: MIC determination; format: cell-based; settings: Staphylococcus aureus, mecA positive, linezolid-resistant, Tables 1 and 5, read-out: MIC
Excerpt: as §1, §2

S. epidermis ATCC 35547 [7] = assay: MIC determination; format: cell-based
Excerpt: as §1, §2

S. aureus NRS120 = assay: MIC determination; format: cell-based; settings: Staphylococcus aureus, mecA positive, linezolid-resistant, Tables 1 and 5, read-out: MIC
Excerpt: as §1, §2

E. faecalis ATCC 29212 = assay: MIC determination; format: cell-based; settings: Enterococcus faecalis, ATCC29212; quality-control strain; Tables 1 and 5; read-out: MIC
Excerpt: as §1, §2

S. aureus ATCC 27660 [8] = assay: Mouse peritonitis model of infection; format: in vivo; settings: po, single dose given at 1 h after infection
Method: Compounds 60b, 60c, 65b, 66b, 75b and 76b were evaluated in the mouse peritonitis model of infection (Table 2). We used the ICR out-bred strain of mice that provides a heterogeneous population, similar to the human situation, thus, ensuring the relevance of the antibacterial effect. This animal model of infection is widely used, it is easy to carry out, and the end points (death or survival) are rapidly assessed, making it less resource-intensive compared to other infection models. In addition, excellent correlation between MIC and ED50 has been shown for 14 β-lactam antibiotics using this model (Kratochwil et al., Biochem. Pharmacol. 2002, 64, 1355). The mouse peritonitis infection model continues to be an important model for evaluation of the efficacy of antibiotics against human pathogens. We use the iv route of administration in initial efficacy studies, as this allows us to test the efficacy without knowledge of the oral bioavailability of the lead. Evaluation was done at 20 mg/kg.
Female ICR mice (6-8 weeks old, ˜20-g body weight) were used for the PK and peritonitis studies. Animals were purchased from Harlan Laboratories, Inc. (Indianapolis, Ind., USA) and given Teklad 2019 Extruded Rodent Diet and water ad libitum. Mice were maintained in polycarbonate shoebox cages with ¼″ corncob (The Andersons Inc., Maumee, Ohio) and Alpha-dri (Sheperd Specialty Papers, Inc., Richland, Mich.) bedding under 12-h light/12-h dark cycle at 72±2° F.
The mouse peritonitis model was used with S. aureus ATCC 27660, as described previously (Tran et al., Am. J. Clin. Dermatol. 2015; doi 10.1007/S40257-015-0125-9). The final bacterial inocula contained 5×10^7 cfu/mL and 5% mucin (Sigma-Aldrich Chemical Co., St Louis, Mo., USA). Just prior to inoculation, bacteria at 10^8 cfu/mL were mixed 1:1 with 10% mucin. Mice (n=6 per group) were given 0.5 mL of the bacterial inocula intraperitoneally. Mice were given two iv doses of the compounds at 30 min and 7.5 h after infection by tail vein injection. […] Mice were monitored for 48 h, at which time the number of surviving mice were counted.
The effective dose that results in survival of 50% of the mice was determined using Probit analysis (XLSTAT, New York, N.Y.). Groups of six mice per dose level were evaluated in the mouse peritonitis infection model at iv doses of 2.5, 5, 7.5, 10, 15, and 20 mg/kg and after po doses at 2.5, 5, 10, 20, and 40 mg/kg. […]

S. aureus ATCC 29213 = assay: MIC determination; format: cell-based, Staphylococcus aureus; settings: Staphylococcus aureus, ATCC29213, quality-control, methicillin-susceptible strain; Tables 1 and 5; read-out: MIC
E. faecium NCTC 7171 = assay: MIC determination; format: cell-based, Enterococcus faecium; settings: Enterococcus faecium, NCTC7171
[9] = cited from earlier work
S. aureus VRS1 [10] = settings: vancomycin, data from reference 10; Table 5; cited from earlier work
[11] = test system: E. faecium 119-39A (Van S); settings: vancomycin, data from reference 10; Table 5; cited from earlier work
S. epidermis ATCC 35547 [12] = settings: vancomycin, data from reference 10; Table 5; cited from earlier work
E. faecium C68 = settings: vancomycin, data from reference 12; Table 5; cited from earlier work
E. faecium 106 (Van R) [13] = settings: vancomycin, data from reference 10; Table 5; cited from earlier work

CC(=O)NC[C@H]1CN(c2ccc(N3CCOCC3)c(F)c2)C(=O)O1 [linezolid, reference compound]
MIC (S. oralis ATCC 9811; Table 1, read-out: MIC): 1 µg/mL (≈ 2.96 µM)
MIC (E. faecium 106 (Van R) [1]; vancomycin-resistant clinical isolate, Tables 1 and 5, read-out: MIC): 1 µg/mL (≈ 2.96 µM)
MIC ([2]; vancomycin-susceptible clinical isolate, Tables 1 and 5, read-out: MIC): 2 µg/mL (≈ 5.93 µM)
MIC [3]: 1 µg/mL (≈ 2.96 µM)
MIC [4]: 2 µg/mL (≈ 5.93 µM)
MIC (S. aureus ATCC 27660 [5]): 2 µg/mL (≈ 5.93 µM)
MIC (S. aureus NRS100 (COL)): 2 µg/mL (≈ 5.93 µM)
MIC (B. cereus ATCC 13061): 1 µg/mL (≈ 2.96 µM)
MIC (S. pyogenes ATCC 49399; Table 1, read-out: MIC): 1 µg/mL (≈ 2.96 µM)
MIC (S. aureus VRS2): 2 µg/mL (≈ 5.93 µM)
MIC (S. aureus VRS1 [6]): 2 µg/mL (≈ 5.93 µM)
MIC (E. faecalis 99 (Van R)): 1 µg/mL (≈ 2.96 µM)
MIC (E. faecalis 201 (Van S)): 2 µg/mL (≈ 5.93 µM)
MIC (S. aureus NRS119): 32 µg/mL (≈ 94.9 µM)
MIC (S. epidermis ATCC 35547 [7]; Tables 1 and 5, read-out: MIC): 1 µg/mL (≈ 2.96 µM)
MIC (S. aureus NRS120): 32 µg/mL (≈ 94.9 µM)
MIC (E. faecalis ATCC 29212): 2 µg/mL (≈ 5.93 µM)
ED50 (S. aureus ATCC 27660 [8]; Staphylococcus aureus, ATCC27660, read-out: ED50): 2.8 mg/kg
ED50 (S. aureus ATCC 27660 [8]): 2.8 mg/kg
MIC (S. aureus ATCC 29213): 4 µg/mL (≈ 11.9 µM)
MIC (E. faecium NCTC 7171; Table 1, read-out: MIC): 2 µg/mL (≈ 5.93 µM)

Cc1onc(-c2ccccc2)c1C(=O)N[C@@H]1C(=O)N2[C@@H]1SC(C)(C)[C@@H]2C(=O)O [oxacillin]
Plasma protein binding [9]: > 91%

CN[C@H](CC(C)C)C(=O)N[C@H]1C(=O)N[C@@H](CC(N)=O)C(=O)N[C@H]2C(=O)N[C@H]3C(=O)N[C@H](C(=O)N[C@H](C(=O)O)c4cc(O)cc(O)c4-c4cc3ccc4O)[C@H](O)c3ccc(c(Cl)c3)Oc3cc2cc(c3O[C@@H]2O[C@H](CO)[C@@H](O)[C@H](O)[C@H]2O[C@H]2C[C@](C)(N)[C@H](O)[C@H](C)O2)Oc2ccc(cc2Cl)[C@H]1O [vancomycin, reference compound]
MIC (S. aureus VRS1 [10]): 512 µg/mL (≈ 353 µM)
MIC [11]: 0.5 µg/mL (≈ 0.345 µM)
MIC (S. oralis ATCC 9811): 0.5 µg/mL (≈ 0.345 µM)
MIC (E. faecium 106 (Van R) [1]): 256 µg/mL (≈ 177 µM)
MIC [2]: 0.5 µg/mL (≈ 0.345 µM)
MIC (S. pyogenes ATCC 49399): 0.6 µg/mL (≈ 0.414 µM)
MIC (S. epidermis ATCC 35547 [7]): 16 µg/mL (≈ 11 µM)
MIC (S. epidermis ATCC 35547 [12]): 16 µg/mL (≈ 11 µM)
MIC (E. faecium C68): 64^k μg/mL
MIC (E. faecium NCTC 7171): 0.5 µg/mL (≈ 0.345 µM)
MIC (E. faecium 106 (Van R) [13]): 256 µg/mL (≈ 177 µM)

teicoplanin
Plasma protein binding [9]: > 91%
